# Data reported in patent US20250195638A1, “TREATMENT AND PREVENTION OF CONDITIONS ASSOCIATED WITH RESPIRATORY DISEASES” (priority 2020, published 2025).
# Test system: Plasmid (pMB57.6)-DNA
# Format: binding
# Conditions: 0.5 μM
substance,measurement,value
SARS-CoV-2 (2019-nCoV) nucleocapsid recombinant protein [N-protein],decrease of fluorescence intensity of DNA-DiYO-1 complex,96.3%
